Source: patent US12605360B2, “Compositions and methods using xanthan gum to stabilize at least one urolithin in an aqueous matrix” (SOCIETE DES PRODUITS NESTLE S.A., priority 2020, dated 2026)

Legend:
[1] = Solubility of Urolithin A; format: physicochemical
From the text: The present disclosure addresses the inventors' recognition that Urolithin A (UA) is insoluble in water, such that a powder containing UA as the main functional ingredient presented the challenge of keeping UA in suspension upon reconstitution of the powder with water. In this regard, UA being insoluble promotes settling of UA at the bottom of the reconstitution container almost immediately. The present disclosure includes various ways of stabilizing Urolithin A in an aqueous matrix, such that when a powder containing UA is reconstituted, the UA remains in suspension.
Comparative experimental data was generated to investigate the possibility of stabilization of UA in an aqueous matrix.

[2] = Suspension of Urolithin A upon reconstitution of powder in water; format: physicochemical
Description: • 1. Initially the base selected was brown rice syrup powder to which UA was added. […] UA forms a suspension in oil, so another experiment used brown rice syrup powder with canola oil powder and whey protein.
Specifically, different gums and concentrations of gums were investigated with UA and a filler that was brown rice syrup powder: • 1. Guar gum • 2. PHGG • 3. Combination of guar and xanthan • 4. Acacia gum • 5. Gellan gum • 6. FMC Gum blend • 7. Xanthan gum
Table 1 (below) sets forth the formulations of the samples testing various gums with UA. FIGS. 3A and 3B set forth the results from these samples.
Some embodiments of the compositions disclosed herein include fruit flavor and thus citric acid. […] Table 2 (below) sets forth the formulations of the samples testing various gums with UA and citric acid. FIGS. 4A and 4B sets forth the results from these samples.
For each sample, after mixing the powder with water, five minutes elapsed, then the suspension was mixed again, and then viscosity was measured. Out of the various experiments, xanthan gum provided the best solution of not only keeping UA in suspension but also the desired viscosity, easily dissolved, and no off taste/odor to the product.
A range of xanthan gum amounts were then studied (Table 3 and FIG. 5). […]

## O=c1oc2cc(O)ccc2c2ccc(O)cc12 [Urolithin A]
[1]; oil
  solubility in oil: sparingly soluble
[1]; water
  solubility in water: insoluble
[2]
  suspension of UA in an oil matrix: forms a good suspension
